Patent US3998963A, “Tertiary butyl substituted carbamoyl oxime pesticides” (priority 1975, dated 1976)
≈ marks a conversion by molar mass, not a printed value.

Experiments:
Type in all cases: in vivo
[1] = system: Mexican bean beetle (Epilachna varivestis, Muls.); experiment: Mexican Bean Beetle Leaf Spray Test; conditions: 72 h, 3 days, read-out: Insect LD50, Beetle
Experimental: (§1) Suspensions of the test compouns were prepared by dissolving one gram of compound in 50 milliliters of acetone in which had been dissolved 0.1 gram (10 percent of the weight of compound) of an alkylphenoxy polyethoxyethanol surfactant, as an emulsifying or dispersing agent. The resulting solution was mixed into 150 milliliters of water to give roughly 200 milliliters of a suspension containing the compound in finely divided form. The thus-prepared stock suspension contained 0.5 percent by weight of compound. The test concentrations in parts per million by weight employed in the tests described hereinbelow were obtained by appropriate dilutions of the stock suspension with water. The test procedures were as follows:
Mexican Bean Beetle Leaf Spray Test
Fourth instar lavae of the Mexican bean beetle (Epilachna varivestis, Muls.), reared on Tendergreen bean plants at a temperature of 80°±5° F. and 50±5 per cent relative humidity, were the test insects.
The test compounds were formulated by diluting the stock suspension with water to give a suspension containing 500 parts of test compound per million parts of final formulation. Potted Tendergreen bean plants of standard height and age were placed on a revolving turntable and sprayed with 100-110 milliliters of test comound formulation by use of a DeVilbiss spray gun set at 10 psig air pressure. This application, which lasted 25 seconds, was sufficient to wet plants to run-off. As a control, 100-110 milliliters of a water-acetone-emulsifier solution containing no test compound were also sprayed on infested plants. When dry, the paired leaves were separated and each was placed in a 9 centimeter Petri dish lined with moistened filter paper. Five randomly selected larvae were introduced into each dish, and the dishes were closed. The closed dishes were labeled and held at a temperature of 80°±5° F, for 3 days. Although the larvae could easily consume the leaf within 24 to 48 hours, no more food was added. Larvae which were unable to move the length of the body, even upon stimulation, were considered dead.

[2] = system: two-spotted mite (Tetranychus urticae Koch); experiment: Mite Foliage Spray Test; conditions: foliar, 144 h, 6 days, read-out: Insect LD50, Mite
Experimental: as §1
Adults and nymphal stage of the two-spotted mite (Tetranychus urticae Koch), reared on Tendergreen bean plants at 80±5 per cent relative humidity, were the test organisms. Infested leaves from a stock culture were placed on the primary leaves of two bean plants 6 to 8 inches in height, growing in a 21/2 inch clay pot. 150-200 Mites, a sufficient number for testing, transferred from the excised leaves to the fresh plants in a period of twenty four hours. Following the twenty four hour transfer period, the excised leaves were removed from the infested plants. The test compounds were formulated by diluting the stock suspension with water to give a suspension containing 500 parts of test compound per million parts of final formulation. The potted plants (one pot per compound) were placed on a revolving turntable and sprayed with 100-110 milliliters of test compound formulation by use of a DeVilbiss spray gun set at 40 psig. air pressure. This application, which lasted 25 seconds, was sufficient to wet the plants to run-off. As a control, 100-110 milliliters of a water solution containing acetone and emulsifier in the same concentrations as the test compound formulation, but containing no test compound, were also sprayed on infested plants. The sprayed plants were held at 80±5 per cent relative humidity for 6 days, after which a mortality count of motile forms was made. Microscopic examination for motile forms was made on the leaves of the test plants. Any individual which was capable of locomotion upon prodding was considered living.

[3] = system: house flies (Musca domestica, L.); experiment: Fly Bait Test; conditions: Musca domestica, 24 hours, read-out: Insect LD50, Housefly
Experimental: as §1
Four to six day old adult house flies (Musca domestica, L.), reared according to the specifications of the Chemical Specialities Manufacturing Association (Blue Book, McNair-Dorland Co., N.Y. 1954; pages 243-244, 261) under controlled conditions of 80°±5° F. and 50±5 per cent relative humidity, were the test insects. The flies were immobilized by anesthetizing with carbon dioxide and twenty five immobilized individuals, males and females, were transferred to a cage consisting of a standard food strainer about five inches in diameter which was inverted over a wrapping-paper covered surface. The test compounds were formulated by diluting the stock suspension with a 10 per cent (by weight) sugar solution to give a suspension containing 500 parts of test compound per million parts of final formulation, by weight. Ten milliliters of the test formulation were added to a souffle cup containing a 1-inch square of an absorbent cotton pad. This bait cup was introduced and centered on the blotting paper under the food strainer prior to admitting the anesthetized flies. The caged flies were allowed to feed on the bait for 24 hours, at a temperature of 80°±5° F. and the relative humidity of 50±5 per cent.
(§2) In Table 1 are presented insect and rat toxicity data (bait tests) on a comparative basis of the compounds described above. […] Rat toxicity is also more meaningfully compared on the basis of molar weight LD50 values. The relative efficacy of the parent compounds as compared to the previously known derivatives and as compared to the new compounds of this invention is also shown in Table 1. The ratio of efficacy as contact poisons (immersion/bait) of the compounds tested against Armyworm and House Fly is presented in Table 2 along with the results of the phytotoxicity tests of the compounds on bean, corn, tomato and cotton.

[4] = system: southern armyworm (Spodoptera eridania, (Cram.)); experiment: Southern Armyworm Leaf Spray Bait Test
Experimental: as §1
Southern Armyworm Leaf Spray Bait Test
Larvae of the southern armyworm (Spodoptera eridania, (Cram.)), reared on Tendergreen bean plants at a temperature of 80°±5° F. and a relative humidity of 50±5 per cent, constituted the test insects.
The test compounds were formulated by diluting the stock suspension with water to give a suspension containing 500 parts of test compound per million parts of final formulation. Potted Tendergreen bean plants of standard height and age were placed on a revolving turntable and sprayed with 100-110 milliliters of test compound formulation by use of a DeVilbiss spray gun set at 10 psig air pressure. This application, which lasted 25 seconds, was sufficient to wet plants to run-off. As a control, 100-110 milliliters of a water-acetone-emulsifier solution containing no test compound were also sprayed on infested plants. When dry, the paired leaves were separated and each one was placed in a 9 centimeter Petri dish lined with moistened filter paper. Five randomly selected larvae were introduced into each dish and the dishes were closed. The closed dishes were labeled and held at 80°-85° F. for 3 days. Although the larvae could easily consume the whole leaf within 24 hours, no more food was added. Larvae which were unable to move the length of the body, even upon stimulation by prodding, were considered dead. Per cent mortality was recorded for various concentration levels.
as §2

[5] = system: bean aphid (Aphis fabae Scop.); experiment: Bean Aphid Foliage Spray Test; conditions: foliar, 24 hour holding period, read-out: Insect LD50, Aphid
Experimental: as §1
Bean Aphid Foliage Spray Test
Adults and nymphal stages of the bean aphid (Aphis fabae Scop.) reared on potted dwarf nasturtium plants at 65°-70° F. and 50-70 per cent relative humidity, constituted the test insects. For testing purposes, the number of aphids per pot was standardized to 100-150 by trimming plants containing excess aphids.
The test compounds were formulated by diluting the stock suspension with water to give a suspension containing 500 parts of test compound per million parts of final formulation.
The potted plants (one pot per compound tested) infested with 100-150 aphids, were placed on a revolving turntable and sprayed with 100 -110 milliliters of test compound formulation by use of a DeVilbiss spray gun set at 40 psig. air pressure. This application, which lasted 25 seconds, was sufficient to wet the plants to run-off. As a control, 100-110 milliliters of a water-acetone-emulsifier solution containing no test compound were also sprayed on infested plants. After spraying, the pots were placed on their sides on a sheet of white standard mimeograph paper which had peen previously ruled to facilitate counting. Temperature and humidity in the test room during the 24 hour holding period were 65°-70° F. and 50-70 per cent, respectively. Aphids which fell onto the paper and were unable to remain standing after being uprighted were considered dead. Aphids remaining on the plants were observed closely for movement and those which were unable to move the length of the body upon stimulation by prodding were considered dead. Per cent mortality was recorded for various concentration levels.

With `CCSC(C)=NOC(=O)N(C)Sc1ccc(C(C)(C)C)cc1` [Compound 10] as the compound, how does the LC50 [1] read?
The LC50 was 20 µg/mL (≈ 58.7 µM).

And the LC50 [2]?
Its LC50 is over 500 µg/mL.

And the LC50 [3]?
The LC50 was 13 µg/mL (≈ 38.2 µM).

What about the LC50 ([4]; Spodoptera eridania, 72 h, leaf spray bait, 3 days, read-out: Insect LD50, Armyworm) of the same compound?
Its LC50 is 14 µg/mL (≈ 41.1 µM).

What about the “(b) relative efficacy of derivative vs parent compound, Armyworm” value ([4]; bait, formula of footnote b is drawing 8) of the same compound?
Its value is 1.52.

And the LC50 [5]?
Its LC50 is 5 µg/mL (≈ 14.7 µM).
